In US8778881B2 (priority 2004, dated 2014):
Bridge positions count the residues as written; N and C are the ends. Square brackets hold non-standard residues; d marks the D form. Peptide text beside a SMILES is read from it. * marks the point of attachment. Ala(2-furyl) = N[C@@H](Cc1ccco1)C(=O)O; Orn(iPr) = CC(C)NCCC[C@H](N)C(=O)O; Dab(iPr) = CC(C)NCC[C@H](N)C(=O)O; 4Pal = N[C@@H](Cc1ccncc1)C(=O)O; 2Thi = N[C@@H](Cc1cccs1)C(=O)O; 3Thi = N[C@@H](Cc1ccsc1)C(=O)O; Aad = N[C@@H](CCCC(=O)O)C(=O)O; Orn = NCCC[C@H](N)C(=O)O; Dab = NCC[C@H](N)C(=O)O; NHiBu = CC(C)CN*; NHOH = ON*

What follows are compounds tested against T1, human oxytocin (hOT) receptor (Homo sapiens, UniProt P30559) (assay: luciferase-based transcriptional reporter assay expressing the human oxytocin (hOT) receptor, for selectivity). Details: not given.
T1 construct: expressed in transfected cells
T1 sequence (P30559 1-389): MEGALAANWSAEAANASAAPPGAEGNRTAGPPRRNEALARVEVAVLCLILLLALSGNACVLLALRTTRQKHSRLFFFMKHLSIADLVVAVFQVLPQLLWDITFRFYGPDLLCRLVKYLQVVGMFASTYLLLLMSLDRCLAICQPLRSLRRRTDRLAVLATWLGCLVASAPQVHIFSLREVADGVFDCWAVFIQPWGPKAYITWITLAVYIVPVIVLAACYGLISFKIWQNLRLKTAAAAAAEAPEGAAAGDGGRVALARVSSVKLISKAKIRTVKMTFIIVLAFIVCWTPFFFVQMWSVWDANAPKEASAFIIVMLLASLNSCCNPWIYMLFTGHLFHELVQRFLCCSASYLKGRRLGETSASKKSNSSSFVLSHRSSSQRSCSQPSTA
Assay type: cell-based
Experimental: (§1) Agonist activity of compounds on the hV1a receptor was determined in a transcriptional reporter assay by transiently transfecting a hV1a receptor expression DNA into HEK-293 cells in concert with a reporter DNA containing intracellular calcium responsive promoter elements regulating expression of firefly luciferase. See Boss, V., Talpade, D. J., Murphy, T. J. J. Biol. Chem. 1996, May 3; 271(18), 10429-10432 for further guidance on this assay. […] To determine selectivity, compounds were tested in luciferase-based transcriptional reporter assays expressing the human oxytocin (hOT) receptor. Assays for other receptors (hV2, hV1b, rat V1a and rat V2) were also conducted.
(§2) The EC50 value given is the geometric mean expressed in nanomol/L (nM). Selectivity values are given as EC50 ratios.

SMILES	selectivity hOT/hV1a (class symbol)
CC[C@H](C)[C@@H]1NC(=O)[C@H](Cc2ccncc2)NC(=O)[C@@H](N)CSSC[C@@H](C(=O)N2CCC[C@H]2C(=O)N[C@@H](CCN)C(=O)NCC(N)=O)NC(=O)[C@H](CC(N)=O)NC(=O)[C@H](CCC(N)=O)NC1=O [Compound 12] (H-C[4Pal]IQNCP[Dab]G-NH2; disulfide 1-6)	+ (key: +: selective hV1a receptor agonist; EC50 hOT/hV1a ratio not determined due to very low agonist efficacy (<30% compared to AVP) at the hOT receptor)
CC[C@H](C)[C@@H]1NC(=O)[C@H](Cc2ccco2)NC(=O)[C@@H](N)CSSC[C@@H](C(=O)N2CCC[C@H]2C(=O)N[C@@H](CCCNC(C)C)C(=O)NCC(N)=O)NC(=O)[C@H](CC(N)=O)NC(=O)[C@H](CC(N)=O)NC1=O [Compound 42] (H-C[Ala(2-furyl)]INNCP[Orn(iPr)]G-NH2; disulfide 1-6)	+ (key: +: selective hV1a receptor agonist; EC50 hOT/hV1a ratio not determined due to very low agonist efficacy (<30% compared to AVP) at the hOT receptor)
CC[C@H](C)[C@@H]1NC(=O)[C@H](Cc2ccccc2)NC(=O)[C@@H](N)CSSC[C@@H](C(=O)N2CCC[C@H]2C(=O)N[C@@H](CCN)C(=O)NCC(N)=O)NC(=O)[C@H](CC(N)=O)NC(=O)[C@H](CCCC(N)=O)NC1=O [Compound 11] (H-CFI[Aad](NH2)NCP[Dab]G-NH2; disulfide 1-6)	+ (key: +: selective hV1a receptor agonist; EC50 hOT/hV1a ratio not determined due to very low agonist efficacy (<30% compared to AVP) at the hOT receptor)

Same assay, conditions: agonist efficacy at the hOT receptor compared to AVP; ratio not determined

SMILES	selectivity hOT/hV1a (class symbol)
CC[C@H](C)[C@@H]1NC(=O)[C@H](Cc2ccccc2)NC(=O)[C@@H](N)CSSC[C@@H](C(=O)N2CCC[C@H]2C(=O)N[C@@H](CCCN)C(=O)NCC(N)=O)NC(=O)[C@H](CC(N)=O)NC(=O)[C@H](CCC(=O)NC)NC1=O [Compound 19] (H-CFIE(NHMe)NCP[Orn]G-NH2; disulfide 1-6; N-terminus and C-terminus assumed)	+ (selective hV1a receptor agonist; EC50 hOT/hV1a ratio not determined due to very low agonist efficacy (<30% compared to AVP) at the hOT receptor)
CC[C@H](C)[C@@H]1NC(=O)[C@H](Cc2ccsc2)NC(=O)[C@@H](N)CSSC[C@@H](C(=O)N2CCC[C@H]2C(=O)N[C@@H](CCCN)C(=O)NCC(N)=O)NC(=O)[C@H](CC(N)=O)NC(=O)[C@H](CC(N)=O)NC1=O [Compound 35] (H-C[3Thi]INNCP[Orn]G-NH2; disulfide 1-6; N-terminus and C-terminus assumed)	+ (selective hV1a receptor agonist; EC50 hOT/hV1a ratio not determined due to very low agonist efficacy (<30% compared to AVP) at the hOT receptor)
CC[C@H](C)[C@@H]1NC(=O)[C@H](Cc2ccccc2)NC(=O)[C@@H](N)CSSC[C@@H](C(=O)N2CCC[C@H]2C(=O)N[C@@H](CCCN)C(=O)NCC(N)=O)NC(=O)[C@H](CC(N)=O)NC(=O)[C@H](CC(=O)NO)NC1=O [Compound 24] (H-CFID(NHOH)NCP[Orn]G-NH2; disulfide 1-6; N-terminus and C-terminus assumed)	+ (selective hV1a receptor agonist; EC50 hOT/hV1a ratio not determined due to very low agonist efficacy (<30% compared to AVP) at the hOT receptor)
CC[C@H](C)[C@@H]1NC(=O)[C@H](Cc2cccs2)NC(=O)[C@@H](N)CSSC[C@@H](C(=O)N2CCC[C@H]2C(=O)N[C@@H](CCN)C(=O)NCC(N)=O)NC(=O)[C@H](CC(N)=O)NC(=O)[C@H](CC(N)=O)NC1=O [Compound 36] (H-C[2Thi]INNCP[Dab]G-NH2; disulfide 1-6; N-terminus and C-terminus assumed)	+ (selective hV1a receptor agonist; EC50 hOT/hV1a ratio not determined due to very low agonist efficacy (<30% compared to AVP) at the hOT receptor)
CC[C@H](C)[C@@H]1NC(=O)[C@H](Cc2cccs2)NC(=O)[C@@H](N)CSSC[C@@H](C(=O)N2CCC[C@H]2C(=O)N[C@@H](CCCN)C(=O)NCC(N)=O)NC(=O)[C@H](CC(N)=O)NC(=O)[C@H](CC(N)=O)NC1=O [Compound 33] (H-C[2Thi]INNCP[Orn]G-NH2; disulfide 1-6; N-terminus and C-terminus assumed)	+ (selective hV1a receptor agonist; EC50 hOT/hV1a ratio not determined due to very low agonist efficacy (<30% compared to AVP) at the hOT receptor)
CC[C@H](C)[C@@H]1NC(=O)[C@H](Cc2ccccc2)NC(=O)[C@@H](N)CSSC[C@@H](C(=O)N2CCC[C@H]2C(=O)N[C@@H](CCCN)C(=O)NCC(N)=O)NC(=O)[C@H](CC(N)=O)NC(=O)[C@H](CC(=O)NC)NC1=O [Compound 49] (H-CFID(NHMe)NCP[Orn]G-NH2; disulfide 1-6; N-terminus and C-terminus assumed)	+ (selective hV1a receptor agonist; EC50 hOT/hV1a ratio not determined due to very low agonist efficacy (<30% compared to AVP) at the hOT receptor)
CC[C@H](C)[C@@H]1NC(=O)[C@H](Cc2ccco2)NC(=O)[C@@H](N)CSSC[C@@H](C(=O)N2CCC[C@H]2C(=O)N[C@@H](CCCN)C(=O)NCC(N)=O)NC(=O)[C@H](CC(N)=O)NC(=O)[C@H](CC(N)=O)NC1=O [Compound 38] (H-C[Ala(2-furyl)]INNCP[Orn]G-NH2; disulfide 1-6; N-terminus and C-terminus assumed)	+ (selective hV1a receptor agonist; EC50 hOT/hV1a ratio not determined due to very low agonist efficacy (<30% compared to AVP) at the hOT receptor)
CC[C@H](C)[C@@H]1NC(=O)[C@H](Cc2ccccc2)NC(=O)[C@@H](N)CSSC[C@@H](C(=O)N2CCC[C@H]2C(=O)N[C@@H](CCCN)C(=O)NCC(N)=O)NC(=O)[C@H](CC(N)=O)NC(=O)[C@H](CCC(=O)NCC(C)C)NC1=O [Compound 21] (H-CFIE(NHiBu)NCP[Orn]G-NH2; disulfide 1-6; N-terminus and C-terminus assumed)	+ (selective hV1a receptor agonist; EC50 hOT/hV1a ratio not determined due to very low agonist efficacy (<30% compared to AVP) at the hOT receptor)
CC[C@H](C)[C@@H]1NC(=O)[C@H](Cc2ccccc2)NC(=O)[C@@H](N)CSSC[C@@H](C(=O)N2CCC[C@H]2C(=O)N[C@@H](CCN)C(=O)NCC(N)=O)NC(=O)[C@H](CC(N)=O)NC(=O)[C@H](CC(=O)NC)NC1=O [Compound 31] (H-CFID(NHMe)NCP[Dab]G-NH2; disulfide 1-6; N-terminus and C-terminus assumed)	+ (selective hV1a receptor agonist; EC50 hOT/hV1a ratio not determined due to very low agonist efficacy (<30% compared to AVP) at the hOT receptor)
CC[C@H](C)[C@@H]1NC(=O)[C@H](Cc2ccccc2)NC(=O)[C@@H](N)CSSC[C@@H](C(=O)N2CCC[C@H]2C(=O)N[C@@H](CCNC(C)C)C(=O)NCC(N)=O)NC(=O)[C@H](CC(N)=O)NC(=O)[C@H](CCCC(N)=O)NC1=O [Compound 22] (H-CFI[Aad](NH2)NCP[Dab(iPr)]G-NH2; disulfide 1-6; N-terminus and C-terminus assumed)	+ (selective hV1a receptor agonist; EC50 hOT/hV1a ratio not determined due to very low agonist efficacy (<30% compared to AVP) at the hOT receptor)

What follows are compounds tested against T2, hV1a receptor (Homo sapiens, UniProt P37288) (assay: hV1a receptor transcriptional reporter (luciferase) agonist assay in HEK-293 cells). Details: not given.
T2 construct: expressed in transfected cells; host or cells: HEK-293 cells (transient transfection)
Assay type: cell-based
Experimental: as §1, §2

T2 sequence (P37288 whole entry): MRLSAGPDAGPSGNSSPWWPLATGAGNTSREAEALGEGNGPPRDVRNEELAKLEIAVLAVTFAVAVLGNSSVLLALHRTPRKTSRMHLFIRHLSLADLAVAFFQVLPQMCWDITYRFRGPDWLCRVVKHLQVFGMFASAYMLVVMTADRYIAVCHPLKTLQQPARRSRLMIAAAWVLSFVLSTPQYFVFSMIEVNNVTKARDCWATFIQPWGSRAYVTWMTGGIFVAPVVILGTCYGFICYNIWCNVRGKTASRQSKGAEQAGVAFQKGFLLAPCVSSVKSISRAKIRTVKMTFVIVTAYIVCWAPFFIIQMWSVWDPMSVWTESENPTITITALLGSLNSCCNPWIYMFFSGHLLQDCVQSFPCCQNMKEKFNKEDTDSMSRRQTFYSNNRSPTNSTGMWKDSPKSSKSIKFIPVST

SMILES	EC50
CC[C@H](C)[C@@H]1NC(=O)[C@H](Cc2ccccc2)NC(=O)[C@@H](N)CSSC[C@@H](C(=O)N2CCC[C@H]2C(=O)N[C@@H](CCCNC(C)C)C(=O)NCC(N)=O)NC(=O)[C@H](CC(N)=O)NC(=O)[C@H](CCCC(N)=O)NC1=O [Compound 1, [Phe^2, Hgn^4, Orn (i-Pr)^8]VT] (H-CFI[Aad](NH2)NCP[Orn(iPr)]G-NH2; disulfide 1-6; N-terminus assumed)	2.02 nM

Same assay, conditions: geometric mean; HEK-293 cells transiently transfected, 5 hours exposure, at least three independent experiments; read-out: EC50 hV1a receptor

SMILES	EC50
CCNC(=O)C[C@@H]1NC(=O)[C@H]([C@@H](C)CC)NC(=O)[C@H](Cc2ccccc2)NC(=O)[C@@H](N)CSSC[C@@H](C(=O)N2CCC[C@H]2C(=O)N[C@@H](CCN)C(=O)NCC(N)=O)NC(=O)[C@H](CC(N)=O)NC1=O [Compound 4, [Phe^2,Asn (Et)^4, Dbu^8]VT] (H-CFID(NHEt)NCP[Dab]G-NH2; disulfide 1-6)	2.36 nM

Same assay, conditions: read-out: EC50 hV1a receptor

SMILES	EC50
CC[C@H](C)[C@@H]1NC(=O)[C@H](Cc2ccco2)NC(=O)[C@@H](N)CSSC[C@@H](C(=O)N2CCC[C@H]2C(=O)N[C@@H](CCCN)C(=O)NCC(N)=O)NC(=O)[C@H](CC(N)=O)NC(=O)[C@H](CCC(N)=O)NC1=O [Compound 32] (H-C[Ala(2-furyl)]IQNCP[Orn]G-NH2; disulfide 1-6)	2.64 nM
